The subject of data set [1] is collagen related peptide (CRP). In words: Solid phase assay, collagen related peptide. Conditions: biotin-peptide 50 µg/mL, microtitration plate, n = 3. In kind it is binding. The procedure:
(§1) Biotin-peptides (50 µg.mL^−1) were incubated on microtitration wells, coated with 1 µg of type-I collagen, convulxin, collagen related peptides, bovine fibrinogen, human fibronectin, rat vitronectin, murine laminin or bovine serum albumin. Bound peptides were detected using HRP-coupled extravidin and the HRP substrate O-phenyl-dianisidine.

The target of the next data set is T1, fibrinogen (Bos taurus, UniProt P02672+P02676+P12799).
T1 sequence (P02672 20-615): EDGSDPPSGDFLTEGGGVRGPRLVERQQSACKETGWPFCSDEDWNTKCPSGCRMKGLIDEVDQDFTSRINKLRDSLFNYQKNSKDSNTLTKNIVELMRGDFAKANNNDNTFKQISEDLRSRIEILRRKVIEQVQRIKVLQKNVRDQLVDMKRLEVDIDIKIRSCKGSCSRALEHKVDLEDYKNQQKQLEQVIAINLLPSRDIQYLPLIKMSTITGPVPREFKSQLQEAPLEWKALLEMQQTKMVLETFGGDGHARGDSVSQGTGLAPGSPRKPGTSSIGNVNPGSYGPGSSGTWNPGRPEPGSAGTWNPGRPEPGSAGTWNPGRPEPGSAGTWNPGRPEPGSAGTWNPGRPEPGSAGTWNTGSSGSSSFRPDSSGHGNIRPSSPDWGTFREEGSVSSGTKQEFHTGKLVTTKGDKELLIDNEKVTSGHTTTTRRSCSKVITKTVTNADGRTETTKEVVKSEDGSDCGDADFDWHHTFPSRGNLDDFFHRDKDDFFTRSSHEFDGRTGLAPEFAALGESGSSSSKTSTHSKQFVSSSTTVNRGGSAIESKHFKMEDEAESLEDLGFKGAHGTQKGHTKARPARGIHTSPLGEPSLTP
T1 sequence (P02676 1-468): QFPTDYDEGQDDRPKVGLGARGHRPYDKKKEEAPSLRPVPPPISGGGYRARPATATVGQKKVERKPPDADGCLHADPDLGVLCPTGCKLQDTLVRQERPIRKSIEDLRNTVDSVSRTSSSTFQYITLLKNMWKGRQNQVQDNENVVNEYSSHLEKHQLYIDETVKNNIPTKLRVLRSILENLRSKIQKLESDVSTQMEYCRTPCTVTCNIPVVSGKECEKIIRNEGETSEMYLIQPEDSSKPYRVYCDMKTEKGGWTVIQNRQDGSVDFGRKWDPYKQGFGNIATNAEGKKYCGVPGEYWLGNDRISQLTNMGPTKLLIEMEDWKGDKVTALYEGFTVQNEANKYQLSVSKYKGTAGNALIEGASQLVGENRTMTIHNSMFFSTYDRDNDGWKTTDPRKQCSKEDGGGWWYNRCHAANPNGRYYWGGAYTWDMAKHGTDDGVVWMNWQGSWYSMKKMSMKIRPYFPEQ
T1 sequence (P12799 25-444): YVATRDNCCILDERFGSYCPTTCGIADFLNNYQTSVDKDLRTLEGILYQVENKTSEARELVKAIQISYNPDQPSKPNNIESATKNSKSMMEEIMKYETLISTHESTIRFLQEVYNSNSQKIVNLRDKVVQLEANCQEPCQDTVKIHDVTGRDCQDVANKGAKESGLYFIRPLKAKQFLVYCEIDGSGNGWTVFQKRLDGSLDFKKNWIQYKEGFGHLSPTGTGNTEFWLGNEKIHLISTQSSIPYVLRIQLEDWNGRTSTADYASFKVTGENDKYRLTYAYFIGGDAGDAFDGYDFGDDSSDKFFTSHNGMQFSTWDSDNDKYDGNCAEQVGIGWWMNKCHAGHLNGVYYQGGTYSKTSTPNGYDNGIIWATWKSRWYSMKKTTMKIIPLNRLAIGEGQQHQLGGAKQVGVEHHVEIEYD
Kind of data set: Solid phase assay, fibrinogen. Conditions: biotin-peptide 50 µg/mL, microtitration plate, n = 3. The format is binding, bovine. The protocol:
as §1

For another data set, the target named is laminin (Mus musculus, UniProt P02468+P02469+P19137). Kind of data set: Solid phase assay, laminin. The format is binding, murine. Conditions: biotin-peptide 50 µg/mL, microtitration plate, n = 3. The procedure: as §1
Data set [2] deals with fibrotic myocardial infarction scar. The format is in vivo, rat. Conditions: rat, in vivo. The procedure:
Myocardial infarction of the left ventricle was induced in rats as follows. Male Wistar rats (CERJ, France) were housed in a controlled environment and fed with a standard rat chow. Myocardial infarction of the left ventricle was induced by ligature of the left descending coronary artery performed under general anesthesia [1 mL.kg^−1 i.p. ketamine (Imalgene 500, Merial) and 0.5 mL.kg^−1 i.p. xylazine (Rompun, Bayer)] and positive pressure ventilation, as described. This protocol was performed under a permit from the French Veterinary Services Directorate.
Two types of control animals were used: healthy rats, and healthy rats which had undergone a simple throracotomy (sham-operated). ^99mTc-biotin-collagelin blood kinetics and biodistribution were investigated by counting blood samples (taken from a jugular catheter) for 6 h after i.v. injection, and organs (extracted after sacrifice) 2 h after injection in a gamma-counter, together with aliquots of the injected preparation (CobraII, Packard, Meriden, USA). Ex vivo myocardial labeling and isotopic imaging were performed 4 weeks after the coronary ligature (or throracotomy), when the lesions had had the time to heal.
For in vivo experiments, radiotracers (70 MBq) were administered i.v. to anesthetized animals (pentobarbital i.p. 6 mg/100 g BW, Ceva Santé Animale, France) within 2 h of radiolabeling. Scintigraphic images were obtained 0–2 h, 4 h, 6 h, 10 h and 24 h after injecting ^99mTc-streptavidin-biotin peptides and 0–3 h after injecting ^99mTc-biotinylated peptides. Planar and tomographic 1-h acquisitions were performed using a dedicated small animal γIMAGER system (Biospace Lab, Paris, France) equipped with 2 parallel low-energy high-resolution collimators (matrix 128×128, 15% energy window centered on 140 KeV). Tracer uptake in the left cardiac area was assessed visually. Two regions of interest were drawn on the scintigrams, over the heart and over the right lung. The mean activity (cpm) per pixel was determined in each region of interest. Then heart-to-lung activity ratios (HLR) were calculated on both planar and transversal tomographic images.

In data set [3] the test system is collagen fibers of the infarct scars. Kind of data set: Post mortem autoradiography of frozen myocardial sections. In kind it is in vivo, rat. The settings on record: 99mTc-streptavidin-coupled peptides. The procedure: After sacrificing the animals, the heart was removed and frozen, then 20-micrometer thick myocardial sections were cut perpendicular to the short axis of the ventricles in a cryostat, and exposed in a radioimager for 16 h. According to calibration studies performed with activity standards of tissue-equivalent homogenates, 50 counts/mm^2 of ^99m Tc-labeled tracers corresponded to ∼210 kBq/mg in autoradiography. The myocardial sections used for autoradiography, and contiguous heart sections (5 µm) fixed in acetone (−20°C), were stained with hematoxylin-eosin, Masson's trichrome and picrosirius red to determine the location and extent of the fibrotic myocardial scarring.

Bridges are numbered along the chain shown (N, C = ends). Where no end group is shown, it is not given here.

With `CSCC[C@@H]1NC(=O)[C@H](C(C)C)NC(=O)[C@H](CCCNC(=N)N)NC(=O)CNC(=O)[C@@H]2CCCN2C(=O)[C@@H](NC(=O)CNC(=O)[C@H](CO)NC(=O)CNC(=O)[C@H](CO)NC(=O)CCCC[C@@H]2SC[C@@H]3NC(=O)N[C@@H]32)CSSC[C@@H](C(N)=O)NC(=O)[C@@H]2CCCN2C(=O)CNC(=O)[C@H](CCC(=O)O)NC(=O)[C@H](CC(=O)O)NC(=O)[C@H](CC(=O)O)NC(=O)CNC(=O)[C@H](CC(C)C)NC(=O)[C@H](Cc2c[nH]cn2)NC(=O)[C@H](CC(C)C)NC(=O)CNC(=O)[C@H](Cc2c[nH]cn2)NC1=O` [collagelin], the “Binding to immobilized CRP” value in data set [1] is “bound”. Besides, the “Binding to immobilized fibrinogen” value on fibrinogen is given as “either to be weak or not to occur at all”. For the same molecule, the “Binding to immobilized laminin” value on laminin is given as “consistently bound”. In data set [2], the “Accumulation of the tracer in the skin of the animals” value is recorded as “did not notice any accumulation” and the “Uptake in bone marrow” value is on record as “low level”.

As to “SGSGCGPQGARGLTGASAGGPC (disulfide 5-22 (inferred)) [reference compound]”, in data set [1], the “Binding to immobilized CRP” value was “did not bind”. Besides, the “Binding to immobilized fibrinogen” value on fibrinogen is recorded as “did not bind”. On laminin, the “Binding to immobilized laminin” value is reported as “did not bind”. Moreover, the “Autoradiographic labeling of the infarct scar” value in data set [3] (frozen myocardium sections 6-8 hours after injection) is reported as “little or no uptake”. Moreover, the “Mean infarct-to-remote myocardium radioactivity ratio” value in data set [3] (rats with MI, mean±SEM, p<0.006) was found to be 1.82±0.32.

These data come from publication PMC2680759, “Non-Invasive Molecular Imaging of Fibrosis Using a Collagen-Targeted Peptidomimetic of the Platelet Collagen Receptor Glycoprotein VI” (PLoS ONE, 2009).
